We go through 14 compounds from patent publication US11613538B2, “Method of inhibiting or reducing a viral infection” (PTC Therapeutics, Inc., priority 2009, dated 2023).

The subject of data set [1] is VEGF production in tumor cells. The data set can be described thus: VEGF production in tumor cells (data not shown). It counts as cell-based. The following applies: in words. The source says: In addition to its effects on pathological VEGF production, a Compound provided herein provokes a late GI/early S-Phase cell cycle delay, i.e., between the late resting or pre-DNA synthesis phase, and the early DNA synthesis phase in those tumor cell lines in which VEGF generation is decreased by the Compound. See Section 8.3. […] The cell cycle delay and inhibition of pathological VEGF protein production occur in concert, linking these phenotypes in inflammation, pathological angiogenesis and tumor growth. […] Thus, these experiments indicate that the effects of the Compound on the tumor cell cycle occur in parallel with its actions on pathological VEGF production in tumors.

Data set [2] has as its system hypoxia-induced VEGF production in HeLa cells. The data set can be described thus: cells. The class given is cell-based, human. The following applies: Homo sapiens, HeLa.
Another data set concerns HT1080 xenografts. In words: HT1080 xenograft tumor growth in male athymic nude mice. It counts as in vivo. The following applies: study #24a; 10 mg/kg QD; in words. The source says: Experimental Design. HT1080 cells (5×10^6 cells/mouse) were implanted subcutaneously in male athymic nude mice. […] For comparison, Compound #10 was included in this study.
A further data set deals with 786-O cells. In words: 786-O renal cell carcinoma xenograft (VHL-negative), tumor volume. The class given is in vivo, mice. The following applies: for Median time for tumors to reach 1000 mm^3: Compound #10 10 mg/kg QD PO, time on study used if not reached; for Median time for tumors to reach 1000 mm^3 / Tumors smaller than those in vehicle-treated mice: sunitinib 75 mg/kg QD PO, rapamycin 15 mg/kg PO; for Tumors smaller than those in vehicle-treated mice: Day 57, Compound #10 10 mg/kg QD PO. On the procedure:
Both sunitinib and rapamycin are used clinically for treatment of renal cancer.
(§1) A total of 100 mice were injected, of which 60 were used in the study.
Groups were taken off study when the mean tumor volume in a group was 1300 mm^3 or more. Vehicle-treatment started on Day 0 and continued through Day 57. Compound #10-treatment started on Day 0 and continued through Day 88.
(§2) Tumors were measured twice per week using digital calipers.
The time to progression to reach a tumor volume 1000 mm^3 was calculated for each mouse. The median values were reported.

The next data set concerns Caki-1 cells. In words: Caki-1 renal cell carcinoma xenograft (VHL-positive), tumor volume. The following applies: for Median time for tumors to reach 1000 mm^3: Compound #10 10 mg/kg QD PO; for Median time for tumors to reach 1000 mm^3 / Tumors smaller than those in vehicle-treated mice: sunitinib 75 mg/kg QD PO, rapamycin 15 mg/kg PO; for Tumors smaller than those in vehicle-treated mice: Day 35, Compound #10 10 mg/kg QD PO. It counts as in vivo, mice. On the procedure: The Caki-1 cell line expresses the von Hippel-Lindau (VHL) protein which acts as a tumor suppressor by promoting the rapid degradation of HIF-1α (hypoxia-inducible factor 1α) under normoxia. Under hypoxic conditions, HIF-1α is stabilized and activated by the inability of VHL to act resulting in increased transcription of VEGF that is responsible for the high vascularization of RCC (see Turcotte et al, 2003, Zimmer et al, 2004).
as §1
Groups were taken off study when the mean tumor volume in a group was 1300 mm^3 or more. Vehicle-treatment started on Day 0 and continued through Day 35. Compound #10-treatment started on Day 0 and continued through Day 52.
as §2
[…] The median values were reported.

Data set [3] is described as follows: Caki-1 xenograft study: body weight and clinical observations. It counts as in vivo, mice. The following applies: Caki-1 study. The source says: Body Weight: The mice were weighed once per week.
The conditions of data set [4]: mouse, in vivo.
A short description of data set [5]: 786-O xenograft study: body weight and clinical observations. The following applies: 786-O study.

Entries after “also recorded” stand apart in the source; their conditions may differ.

For `NC(Cn1ccc(=O)c(O)c1)C(=O)O` (stereo not drawn) [mimosine], the “Effect on VEGF production” value in data set [1] is listed as “does not reduce VEGF production”.
For the compound `O=C(Oc1ccc(Cl)cc1)N1CCc2c([nH]c3ccc(Cl)cc23)[C@H]1c1ccc(OCC[C@H](O)CO)cc1` [Compound 1330], the EC50 (usually the concentration at which the effect is half-maximal) in data set [2] was above 1000 nM. Besides, the “Growth of HT1080 tumors in vivo (FIG. 4)” value in the data set with HT1080 xenografts is “overlapped with the growth of tumors in mice treated with 0.5% HPMC vehicle”.
On to `CCN(CC)CCNC(=O)c1c(C)[nH]c(/C=C2\C(=O)Nc3ccc(F)cc32)c1C` [sunitinib], for which the “Median time for tumors to reach 1000 mm^3” value is on record as 119 days with 786-O cells and 66 days in the data set on Caki-1 cells. Besides, the entries for the “Tumors smaller than those in vehicle-treated mice” value with 786-O cells and in the data set on Caki-1 cells were 83% and 66%, respectively. The “Tumor size (mean±SD)” value is recorded as 709938 mm^3 in the data set with 786-O cells (Day 119, 75 mg/kg QD, PO) and 1494±1150 mm^3 with Caki-1 cells (Day 98, 75 mg/kg QD, PO). In addition, the “Clinical observation: skin” value in data set [3] (from Day 8 onward, all mice, in words) was “yellow-tinged skin”; in data set [5] (from Day 7 onward, all mice, in words) it was “yellow-tinged skin”. In addition, the “Body weight change from initial body weight” value in data set [3] (in words) and in data set [5] (in words) was “transiently lost weight” throughout. Further, the “Individual mice found dead or sacrificed” value in data set [3] (in words) was “sacrificed on Day 4; also recorded: found dead on Day 17; also recorded: found dead on Day 95”. Also, the “Mice of the treatment group that had died or were sacrificed due to sickness” value in data set [4] is 1 of the 10 mice. In data set [5] (all mice, in words), the “Survival of treated mice” value was “survived until sacrificed”.
As to `CO[C@H]1C[C@@H]2CC[C@@H](C)[C@@](O)(O2)C(=O)C(=O)N2CCCC[C@H]2C(=O)O[C@H]([C@H](C)C[C@@H]2CC[C@@H](O)[C@H](OC)C2)CC(=O)[C@H](C)/C=C(\C)[C@@H](O)[C@@H](OC)C(=O)[C@H](C)C[C@H](C)/C=C/C=C/C=C/1C` [rapamycin], the “Median time for tumors to reach 1000 mm^3” value with 786-O cells stood at 87 days; in the data set with Caki-1 cells it was 43 days. Moreover, the entries for the “Tumors smaller than those in vehicle-treated mice” value in the data set with 786-O cells and with Caki-1 cells were 49% and 60%, respectively. The “Tumor size (mean±SD)” value in the data set on 786-O cells (Day 93, 15 mg/kg PO) stood at 1715±393 mm^3; in the data set with Caki-1 cells (Day 63, 15 mg/kg PO), 1689±1081 mm^3. Besides, the Body weight loss in data set [3] (Day 8) was 4.3%; in data set [3] (Day 14), 5.8%; in data set [5] (Day 7), 2.4%; in data set [5] (Day 14), 2.8%. Besides, the “Mice of the treatment group that had died” value in data set [3] (by Day 65) is reported as 6 of the 10 mice. Further, the “Body weight change from initial body weight” value in data set [3] (in words) and in data set [5] (in words) was “transiently lost weight” each time. The “Individual mice found dead or sacrificed” value in data set [3] (in words) is on record as “found dead on Day 14; also recorded: found dead on Day 62; also recorded: found dead on Day 63”. In addition, the “Mice of the treatment group that had died or were sacrificed due to sickness” value in data set [4] is recorded as 1 of the 10 mice. In data set [5] (all mice, in words), the “Survival of treated mice” value is given as “survived until sacrificed”.
On to `CC#CCOC(=O)N1CCc2c([nH]c3ccc(Cl)cc23)C1c1ccc(OCCn2cc(C(N)=O)c(N)n2)cc1` (stereo not drawn) [Compound 1404], for which, in data set [2], the EC50 fell in the range of 40 to 200 nM.
Same read-out and setting: the same measure for `NC(=O)COc1ccc(C2c3[nH]c4ccc(Cl)cc4c3CCN2C(=O)Oc2ccc(F)cc2)cc1` (stereo not drawn) [Compound 1215]: 8 to 40 nM; for `O=C(Oc1ccc(F)cc1)N1CCc2c([nH]c3ccc(Cl)cc23)C1c1cccc(OCCCN2CCOCC2)c1` (stereo not drawn) [Compound 1115]: 8 to 40 nM; for `C=CCOc1ccc([C@H]2c3[nH]c4ccc(Cl)cc4c3CCN2C(=O)OC2CCCC2)cc1` [Compound 1262]: below 8 nM.
Compound `O=C(Oc1ccc(Cl)cc1)N1CCc2c([nH]c3ccc(Cl)cc23)[C@H]1c1ccc(O)cc1` [Compound 1332] showed a 50% effective concentration (EC50) in data set [2] above 1000 nM.
Take `O=C(OCC1CC1)N1CCc2c([nH]c3ccc(Cl)cc23)[C@@H]1c1ccc(OC[C@H](O)CO)cc1` [Compound 1377]: the EC50 in data set [2] was below 8 nM.
On the same count and under the same terms, the same measure for `CC1(C)OC[C@H](CCOc2ccc([C@H]3c4[nH]c5ccc(Cl)cc5c4CCN3C(=O)OCC3CCC3)cc2)O1` [Compound 1315]: below 8 nM; for `O=C(COc1ccc(C2c3[nH]c4ccc(Cl)cc4c3CCN2C(=O)Oc2ccc(F)cc2)cc1)N1CCN(CCO)CC1` (stereo not drawn) [Compound 1064]: 8 to 40 nM; for `COc1cc(C2c3[nH]c4ccc(Cl)cc4c3CCN2C(=O)Oc2ccc(F)cc2)ccc1OCCCN1CCOCC1` (stereo not drawn) [Compound 1133]: below 8 nM.
Still for that read-out and setting: under `CCC(CO)(CO)COc1ccc([C@H]2c3[nH]c4ccc(Cl)cc4c3CCN2C(=O)OCC(C)C)cc1` [Compound 1326] stands below 8 nM.
